Five compounds from ChEMBL document CHEMBL1201862, “PubChem BioAssay data set” (2004) can be followed below.

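Protocol summary: plate cells (96-well), add compound at 5 concentrations, incubate 48 h, interpolate endpoints linearly. Here, GI50 denotes the concentration required for 50% inhibition of growth.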 The source made the active and inactive calls. Cut-off read from the data, not from the text of the source: active = GI50 up to about 1.1 µM and inactive = higher.

Common to all, as to test: growth of human tumour cells (NCI), 48 h
Assay [1] relates to MOLT-4.
Assay [2] relates to HT-29.
The test system of assay [3] is IGROV-1.
Assay [4] concerns CAKI-1.
Assay [5] relates to TK-10.
In assay [6] the test system is SF-268.
The subject of assay [7] is RXF 393.
For assay [8], the system named is K562.
Assay [9] has as its system A549.
Assay [10] relates to EKVX.
In assay [11] the test system is SF-295.
Assay [12] relates to OVCAR-4.
The test system of assay [13] is NCI-H460.
Assay [14] deals with NCI-H226.
The subject of assay [15] is HCC 2998.
Assay [16] has as its system HOP-62.
The test system of assay [17] is SN12C.
Assay [18] deals with HCT-15.
Assay [19] concerns LOX IMVI.

Regarding `COC(=O)C1=C(C)N2CCOC2(C)C(C(=O)OC)C1c1ccc[nH]1` (stereo not drawn), the GI50 in [1], in [2], in assay [3], in assay [4], in assay [5] and in [6] was > 100 µM (inactive) throughout. Further, the GI50 in assay [7], in [8], in assay [9], in [10], in assay [11] and in assay [12] was > 100 µM (inactive) in each case. Moreover, the GI50 in [13], in [14], in [15] and in assay [16] was > 100 µM (inactive) throughout.

Consider `COC(=O)c1cc(NC2OCC(OC(C)=O)C(OC(C)=O)C2OC(C)=O)nc(SC)c1C(=O)OC` (stereo not drawn), for which the GI50 in assay [1], in assay [2], in assay [3], in [4], in assay [5] and in assay [17] was > 100 µM (inactive) throughout. In addition, the GI50 in [6] was > 100 µM (inactive); in assay [9], > 100 µM (inactive); in [18] it was above 100 µM; in assay [19] it was > 100 µM (inactive); in assay [10], > 100 µM (inactive); in assay [11], > 100 µM (inactive). For the same compound, the GI50 in assay [12], in [13], in assay [15] and in assay [16] was > 100 µM (inactive) in each case.

As to `CN1c2ccccc2C(=O)NC12CCN(CCCC(=O)c1ccc(F)cc1)CC2`, the GI50 in assay [1] is 21.1 µM (inactive); in assay [2], 23.1 µM (inactive); in [3], > 100 µM (inactive); in assay [4], 82.4 µM (inactive); in assay [17] it was > 100 µM (inactive); in assay [6] it was 17.8 µM (inactive). The GI50 is 62.8 µM (inactive) in assay [7]; 25.9 µM (inactive) in [8]; > 100 µM (inactive) in assay [9]; above 100 µM in assay [18]; > 100 µM (inactive) in assay [10]; 73.5 µM (inactive) in [11]. Moreover, the GI50 is 87.3 µM (inactive) in assay [12], > 100 µM (inactive) in assay [14], 19.7 µM (inactive) in [15] and > 100 µM (inactive) in assay [16].

`NC(CCCCCCCCCCP(=O)(O)O)C(=O)O` (stereo not drawn): the GI50 is > 100 µM (inactive) in [1]; > 100 µM (inactive) in assay [2]; > 100 µM (inactive) in assay [3]; 4.23 µM (inactive) in [4]; > 100 µM (inactive) in assay [5]; > 100 µM (inactive) in assay [17]. The GI50 in assay [6] was > 10 µM (inactive); in assay [7], > 100 µM (inactive); in [8] it was > 100 µM (inactive); in assay [9], > 100 µM (inactive); in [18] it was above 100 µM; in assay [19], > 100 µM (inactive). Besides, the GI50 in [10], in assay [11], in assay [12], in assay [13] and in assay [15] was > 100 µM (inactive) in each case.

For the compound `COc1ccc(OC)c(SC(CC(=O)c2ccccc2)c2ccccc2)c1` (stereo not drawn), the GI50 in assay [1] is 0.877 µM (active); in assay [2], 8.24 µM (inactive); in assay [3], 11 µM (inactive); in assay [4], 13.9 µM (inactive); in [5], 17.2 µM (inactive); in assay [17], 17.9 µM (inactive). Further, the GI50 in [6] was 19.1 µM (inactive); in [7] it was 15.8 µM (inactive); in [8] it was 4.91 µM (inactive); in [9], 27.9 µM (inactive); in [18] it was 17.5 µM; in assay [10], 15.2 µM (inactive). Further, the GI50 in assay [11] is 15.2 µM (inactive); in assay [12], 61.4 µM (inactive); in assay [13], 37.1 µM (inactive); in assay [14], 14.3 µM (inactive); in [15], 17.5 µM (inactive); in [16], 20.9 µM (inactive).
